This note sets out measurements from US20210346359A1, “Use of CFTR Modulators For Treating Cerebrovascular Conditions” (Qanatpharma AG, priority 2018, published 2021).

Structures are written as SMILES. Entries after “also recorded” stand apart in the source; their conditions may differ.

Assay type in all cases: in vivo, mouse
The nature of test [1]: Global hemodynamic parameters (CO, TPR, MAP) in heart failure mice. Conditions: HF mice, 3 mg/kg daily for 2 days. As for the experimental part:
As previously described (9-11), echocardiographic measurements were collected with a 30 MHz mechanical sector transducer (Vevo 770; Visual Sonics, Toronto, Canada) in conjunction with the mean arterial pressure (MAP) measurements (Millar SPR-671 micro-tip mouse pressure catheter; Inter V Medical Inc., Montreal, Canada). The aortic flow velocity-time integral (VTI) was measured using pulse wave Doppler just above the aortic root. The aortic cross-sectional area (CSA) was calculated from the aortic root dimension (ARD): CSA=π(ARD/2)2. Stroke volume (SV), CO and TPR were calculated as: SV=CSA×VTI; CO=SV×HR; TPR=MAP/CO.
Myocardial infarction: HF was induced by surgical ligation of the left anterior descending coronary artery (3). Briefly, mice were anaesthetized with isoflurane, intubated with a 20-gauge angiocatheter and ventilated with room air. Under sterile conditions, the thorax and pericardium were opened, and the left anterior descending coronary artery was permanently ligated with 7-0 silk suture (Deknatel: Fall River, USA). In sham-operated controls, the thorax and pericardium were opened, but the left anterior descending coronary artery was not ligated. Following the procedure, the chest was closed and the mice were extubated upon spontaneous respiration. Posterior cerebral arteries (PCAs) were isolated 4-6 weeks post-infarction.

Test [2] concerns mice with heart failure. The test is described as follows: Golgi stain / Sholl analysis of cortical neuron dendrite morphology in heart failure mice. Conditions: 3 mg/kg i.p. daily for 2 weeks. An excerpt:
Brains were perfused with heparinized saline via transcardiac perfusion, isolated and processed stained utilizing a commercially available Rapid GolgiStain kit (FD NeuroTechnologies Inc.; Columbia, USA). The kit uses a modified Golgi-Cox staining procedure originally described by Glaser and Van der Loos (24). Briefly, isolated brain tissue samples were immersed in a kit-provided solution containing mercuric chloride, potassium dichromate and potassium chromate in the dark for 8 days; this was followed by a 6-day incubation with tissue protection solution. The brain samples were then washed, embedded in 4% low gelling agarose, sectioned in the coronal plane (150 μm thickness; Campden Instruments 7000 smz-2 vibrating microtome) and mounted onto gelatin-coated glass slides. The staining procedure was then completed using kit-provided developing/staining reagents, according to the manufacturer's instructions. […] We analyzed both the basal and apical dendrite networks of pyramidal cortical neurons from the frontal cortex, using a quantitative approach originally described by Shall (25). We utilized Image J software coupled with the semi-automated Simple Neurite Tracer plugin (both freely available from the NIH) to identify and digitally isolate the dendrite networks of a single cortical neuron from a 200× magnification hyperstack image. The center of the soma was marked with the pointer tool; dendrite morphology was then characterized by Sholl analysis (see https://imagej.net/Sholl_Analysis, version 3.7.4), using 5 μm intervals to a maximal radius of 300 μm. This analysis characterizes dendrite morphology in terms of dendrite intersections (i.e., branching) and dendrite length. For each treatment group, 2-4 neurons per mouse from 4 mice were analyzed under blinded conditions. To assess dendritic spine density (i.e., the number of small protrusions found on dendrites), we imaged 3rd branch order dendritic segments at 100× magnification. Spine density was measured as the number of spines per segment for the following segments: 20-50 μm from soma; 30-60 μm from soma; 50-80 μm from soma; and 60-100 μm from soma). This “sliding measurement” approach permits an assessment of how spine density changes over the length of dendritic branch. For each treatment group, spine density was measured in 2-4 pyramidal cortical neurons (2-4 third order branches per neuron) per mouse from 3-4 mice per group, under blinded conditions.

Test [3] deals with mice with heart failure. Put plainly: MRI (FAIR) cerebral blood flow in heart failure mice. The note with it: HF mice, forebrain cortical, 3 mg/kg daily for 2 days. The text has this: As described previously (10-12), we utilized a flow-sensitive alternating inversion recovery (FAIR) magnetic resonance imaging (MRI) technique (13) to evaluate cerebral blood flow (CBF). During imaging, mice were immobilized with 1.8% isoflurane delivered through a nose cone. To maintain body temperature, the MRI is equipped with embedded tubes that convect water from an external heater-pump. Respiration was monitored using a pneumatic pillow (SA Instruments, Stonybrook, USA); isoflurane levels were adjusted to maintain respiration at approximately 50 breaths/minute.
FAIR images were obtained using a 7 Tesla micro-MRI system (BioSpec 70/30 USR, Bruker BioSpin, Ettlingen, Germany), including the B-GA12 gradient insert, 72 mm inner diameter linear volume resonator for RF transmission, and anteriorly placed head coil for RF reception. […] FAIR images were evaluated by manual prescription (MIPAV, NIH, Bethesda, MD; http://mipav.cit.nih.gov) of sub-hemispheric regions-of-interest (ROIs), termed ‘global’, and local ROIs corresponding to cortical and sub-cortical parenchyma in forebrain sections; cortical and paraventricular parenchyma in middle sections; and cortical and midbrain parenchyma in hindbrain sections. […]

In the case of `O=C(Nc1ncc(C(c2ccccc2Cl)N2CCC(O)C2)s1)C1(c2ccc3c(c2)OCO3)CC1` (stereo not drawn) [C18, 1-(benzo[d][1,3]dioxol-5-yl)-N-(5-((2-chlorophenyl)(3-hydroxypyrrolidin-1-yl)methyl)thiazol-2-yl)cyclopropanecarboxamide], in test [1], the “cardiac injury induced by left anterior descending coronary artery ligation” value is listed as “does not ameliorate” and the “mean arterial pressure (MAP)” value is listed as “no effect”. Besides, the “total peripheral resistance (TPR)” value in test [1] (3 mg/kg) is given as “no effect; also recorded: lack of effect”. In addition, in the test on mice with heart failure [2], the “mean apical dendrite length (maximum radius), HF-induced reduction” value is “normalized” and the “mean basal dendrite length (maximum radius), HF-induced reduction” value is listed as “normalized”. Moreover, in the test on mice with heart failure [2] (HF mice, sham vs HF vs HF+C18), the “apical dendrite branching morphology (Sholl analysis)” value is “No differences”; the “basal dendrite branching morphology (Sholl analysis)” value is on record as “no differences”; the “mean apical dendrite spine density at 60-100 μm from soma, group difference” value was “does not reach statistical significance”. Also, the “cerebral blood flow / cerebral perfusion” value in the test on mice with heart failure [3] is recorded as “restores; also recorded: significantly improves”.
